Assays:
Format in all cases: in vivo
two-spotted spider mites [1] = test: whole plant or invertebrate; settings: 48 h; 200 ppm sprayed onto kidney bean leaves; after 2 days; read-out: mortality rate of the two-spotted spider mites
Description: A piece of non-woven fabric (4.5×5.5 cm) was suspended inside a plastic cup through an incision made in the lid of the plastic cup. After water was poured into the cup, the cup was covered with the lid. A kidney bean leaf (about 3.5×4.5 cm) was then placed on the sufficiently soaked, non-woven fabric. Another kidney bean leaf with two-spotted spider mites (about 30 mite samples) was placed on top of the first leaf, and the fabric and leaves were placed in a thermostatic chamber having a temperature of 25±2° C. and a humidity of 40%.
Miticidal formulations containing the compound of the invention (200 ppm) were prepared by adding an aqueous solution (100 ppm) of Sorpol 355 (manufactured by Toho Kagaku Co., Ltd.) to a methanol solution of the compound of the invention.
These miticidal formulations were sprayed onto the leaves, and the leaves were air-dried and placed in a thermostatic chamber (25±2° C., humidity 50%). The mortality rate of the two-spotted spider mites was calculated after 2 days.

[2] = test system: rice plants, cucumbers, cabbages, spinaches, lettuces, tomatoes, leeks, carrots or kidney bean plants; test: Test Example 6: phytotoxicity test; settings: 0.2 liters/m^2
Method: As test compounds, test compounds A, B and C above were used. The 20% wettable powders prepared in formulation example 2 were diluted 500 and 1,000 times. These diluted wettable powders were sprayed onto rice plants, cucumbers, cabbages, […], lettuces, tomatoes, leeks, carrots or kidney bean plants in an amount of 0.2 liters/m^2. The development of phytotoxicity was examined by the naked eye 7 and 14 days after the spraying. […] Further, 20% wettable powders using test compound B were diluted 50, 100 and 200 times, and sprayed onto cucumbers, cabbages, leeks or carrots in an amount of 0.2 liters/m^2. The development of phytotoxicity was examined by the naked eye 7 and 14 days after spraying.

two-spotted spider mites [3] = test: Test Example 3: miticidal test on two-spotted spider mites at low concentration; settings: 20 ppm emulsifiable concentrate, 2 ml sprayed on leaf with 30 female adults; counted 2 days later
Method: (§1) • Test compound A: Compound No. 1 in table 3 (the compound of the invention). • Test compound B: Compound No. 2 in table 3 (the compound of the invention). • Test compound C: Compound No. 10 in table 3 (the compound of the invention). • Test compound D: Intermediate No. II-25 disclosed in table 2 on page 101 of Japanese Unexamined Patent Publication No. 158137/1999. (2) Preparation of Emulsifiable Concentrate
(§2) Emulsifiable concentrates were prepared by adding the test compound, acetone and Sorpol 355 (surfactant) to distilled water. These emulsions were set to contain acetone in the proportion of 5 wt. % and Sorpol 355 in the proportion of 0.01 wt. %. The concentration of the test compound was set at 20 ppm.
2 ml of each emulsifiable concentrate prepared above was sprayed onto a piece of a kidney bean leaf (2×4 cm) with 30 female adults of two-spotted spider mites. After being air-dried, the leaf was placed in a thermostatic chamber having a temperature of 25±1° C. The number of live and dead mites was counted 2 days later. The mortality rate was calculated using the following equation: Mortality rate={1−(survival rate in treated area)/(survival rate in untreated area)}×100

Apple (fuji) = test: Test Example 5: phytotoxicity test on field crops; settings: 20% wettable powder, degree of dilution 1000, 0.4 liters/m^2, 27 days after spraying
Method: (§3) The 20% wettable powders obtained in formulation example 2 were diluted to a predetermined degree and sprayed onto crops in a field in an amount of 0.4 liters/m^2. In a predetermined period after spraying, the development of phytotoxicity was observed by the naked eye. As test compounds, test compounds A, B and C above were used.

Pear (hosui) = test: Test Example 5: phytotoxicity test on field crops; settings: 20% wettable powder, degree of dilution 2000, 0.4 liters/m^2, 21 days after spraying
Method: as §3

Orange (sour orange) = test: Test Example 5: phytotoxicity test on field crops; settings: 20% wettable powder, degree of dilution 400, 0.4 liters/m^2, 40 days after spraying
Method: as §3

Orange (iyo) = test: Test Example 5: phytotoxicity test on field crops; settings: 20% wettable powder, degree of dilution 1000, 0.4 liters/m^2, 40 days after spraying
Method: as §3

Apple (jonagold) = test: Test Example 5: phytotoxicity test on field crops; settings: 20% wettable powder, degree of dilution 1000, 0.4 liters/m^2, 14 days after spraying
Method: as §3

Tea (yabukita) = test: Test Example 5: phytotoxicity test on field crops; settings: 20% wettable powder, degree of dilution 1000, 0.4 liters/m^2, 21 days after spraying
Method: as §3

Orange (mandarin) = test: Test Example 5: phytotoxicity test on field crops; settings: 20% wettable powder, degree of dilution 1000, 0.4 liters/m^2, 40 days after spraying
Method: as §3

Eggplant (senryo) = test: Test Example 5: phytotoxicity test on field crops; settings: 20% wettable powder, degree of dilution 1000, 0.4 liters/m^2, 14 days after spraying
Method: as §3

Grape (pione) = test: Test Example 5: phytotoxicity test on field crops; settings: 20% wettable powder, degree of dilution 2000, 0.4 liters/m^2, 28 days after spraying
Method: as §3

two-spotted spider mites [4] = test: Test Example 4: residual miticidal test on two-spotted spider mites (sprayed kidney bean plant); settings: 200 ppm, 30 ml sprayed on kidney bean plant, counted 2 days later; for Adjusted mortality rate (%) 3 days after spraying: mites introduced 3 days after spraying; for Adjusted mortality rate (%) 5 days after spraying: mites introduced 5 days after spraying
Method: as §1, with “compound E: Compound” for “compound D: Intermediate”, “No. a-683” for “No. II-25”, “table 1-a” for “table 2”, “page 81” for “page 101”, “Emulsifiable Concentration” for “Emulsifiable Concentrate”
as §2, with “200” for “20”
30 ml of each emulsifiable concentrate prepared above was sprayed onto a kidney bean plant (at the stage of true leaf growth) in a 9-cm pot, and air-dried. The pot was placed in a glass greenhouse. Each of the first and second leaves was cut into a piece having a size of 3×5 cm, and 15 female adults of two-spotted spider mite were introduced thereto after 3 and 5 days of the spraying. Those pieces of leaves were placed in a thermostatic chamber having a temperature of 25±1° C. The number of live and dead mites was counted 2 days later. The mortality rate thereof was calculated in the same manner as in test example 3 above.

[5] = 20% wettable powders diluted 500 and 1,000 times, nine plant kinds, 7 and 14 days after the spraying

Row | SMILES | mortality at 200 ppm (two-spotted spider mites [1]) [%] | development of phytotoxicity ([2]; 20% wettable powders diluted 50, 100 and 200 times, cucumbers, cabbages, leeks or carrots, 7 and 14 days after spraying) | development of phytotoxicity [2, 5] | mortality rate (two-spotted spider mites [3]) [%] | Phytotoxicity (Apple (fuji)) | Phytotoxicity (Pear (hosui)) | Phytotoxicity (Orange (sour orange)) | Phytotoxicity (Orange (iyo)) | Phytotoxicity (Apple (jonagold)) | Phytotoxicity (Tea (yabukita)) | Phytotoxicity (Orange (mandarin)) | Phytotoxicity (Eggplant (senryo)) | Phytotoxicity (Grape (pione)) | Adjusted mortality rate (%) 3 days after spraying (two-spotted spider mites [4]) [%] | Adjusted mortality rate (%) 5 days after spraying (two-spotted spider mites [4]) [%]
1 | COC(=O)C(C#N)(C(=O)c1ccccc1C(F)(F)F)c1ccc(Cl)cc1 (centres unmarked) [Compound No. 30, Methyl 2-(4-Chlorophenyl)-2-(2-Trifluoromethylbenzoyl)Cyanoacetate] | ≥ 50 | – | – | – | – | – | – | – | – | – | – | – | – | – | –
2 | CCOC(=O)C(C#N)(C(=O)c1ccccc1C(F)(F)F)c1ccc(C(C)(C)C)cc1 (racemic) [Compound No. 2] | – | no development of phytotoxicity was observed | no development of phytotoxicity was observed | 100 | None | None | None | None | None | None | None | None | None | 100 | 93
3 | COC(=O)C(C#N)(C(=O)c1ccccc1C(F)(F)F)c1ccc(C(C)(C)C)cc1 (racemic) [Compound No. 1] | – | – | no development of phytotoxicity was observed | 100 | None | None | – | None | None | None | – | – | None | 100 | 95
4 | COCCOC(=O)C(C#N)(C(=O)c1ccccc1C(F)(F)F)c1ccc(C(C)(C)C)cc1 (racemic) [Compound No. 10] | – | – | no development of phytotoxicity was observed | 100 | None | None | – | None | None | None | – | – | None | 100 | 100

— US6899886B2, “Acylacetonitriles, process for preparation thereof and miticides containing the same” (Otsuka Chemical Co., Ltd., priority 2000, dated 2005)
